Reference: ChEMBL document CHEMBL1201862, “PubChem BioAssay data set” (2004)
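Compound exposure: 48 hours, 5 concentrations, 96-well plates. Here, GI50 denotes the concentration required for 50% inhibition of growth.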 Activity calls are given as the source filed them. Cut-off read from the data, not from the text of the source: active = GI50 up to about 1.1 µM and inactive = higher.

Key:
Experiment in all cases: NCI tumour cell line growth inhibition, 48 h
[1] = system: SK-MEL-2
[2] = system: UO-31
[3] = system: SR
[4] = system: HOP-92
[5] = system: SF-295
[6] = system: HCT-15
[7] = system: SK-MEL-28
[8] = system: NCI-H460
[9] = system: HCC 2998
[10] = system: A549
[11] = system: SF-539
[12] = system: HCT-116
[13] = system: SW-620
[14] = system: NCI-H23
[15] = system: DLD-1
[16] = system: CAKI-1
[17] = system: NCI-H522

Compound	GI50 [1]	GI50 [2]	GI50 [3]	GI50 [4]	GI50 [5]	GI50 [6] [µM]	GI50 [7]	GI50 [8]	GI50 [9]	GI50 [10]	GI50 [11]	GI50 [12]	GI50 [13]	GI50 [14]	GI50 [15]	GI50 [16]	GI50 [17]
CN(C)C(=O)Oc1c(-c2ccccc2)c(=O)n2c3ccccc3n3c(=O)n(C)c(=O)c1c23	> 100 µM (inactive)	> 100 µM (inactive)	> 100 µM (inactive)	> 100 µM (inactive)	> 100 µM (inactive)	> 100	> 100 µM (inactive)	> 100 µM (inactive)	> 100 µM (inactive)	> 100 µM (inactive)	> 100 µM (inactive)	> 100 µM (inactive)	> 100 µM (inactive)	> 100 µM (inactive)	> 100 µM (inactive)	> 100 µM (inactive)	–
CN(CCS(=O)(=O)N1C(=O)C2CCCN2C(=O)[C@@H]1Cc1ccccc1)C(=O)OCc1ccccc1 (stereo partly drawn)	–	31.8 µM (inactive)	40 µM (inactive)	26.2 µM (inactive)	62.2 µM (inactive)	58.6	93.5 µM (inactive)	47.4 µM (inactive)	40.2 µM (inactive)	48 µM (inactive)	> 100 µM (inactive)	39.9 µM (inactive)	> 100 µM (inactive)	53.2 µM (inactive)	> 100 µM (inactive)	44.4 µM (inactive)	39.5 µM (inactive)
CCOC(=O)C1COc2cc(-c3cc(=O)c4ccccc4o3)ccc2O1 (stereo not drawn)	> 100 µM (inactive)	30.5 µM (inactive)	> 100 µM (inactive)	10.4 µM (inactive)	> 100 µM (inactive)	–	> 100 µM (inactive)	33.8 µM (inactive)	> 100 µM (inactive)	> 100 µM (inactive)	30.5 µM (inactive)	> 100 µM (inactive)	> 100 µM (inactive)	> 100 µM (inactive)	36.1 µM (inactive)	> 100 µM (inactive)	19.2 µM (inactive)
CN(C)CCN(C)CCC(=O)/C=C/c1ccccc1	39.2 µM (inactive)	> 64.7 µM (inactive)	7 µM (inactive)	25.5 µM (inactive)	> 40.4 µM (inactive)	21.8	20.1 µM (inactive)	> 100 µM (inactive)	> 45.5 µM (inactive)	> 71.6 µM (inactive)	19.1 µM (inactive)	17.1 µM (inactive)	18.5 µM (inactive)	27.1 µM (inactive)	19.5 µM (inactive)	22.7 µM (inactive)	4.02 µM (inactive)
CC(C)(Oc1ccc(C(=O)c2ccc(Cl)cc2)cc1Cl)C(=O)Nc1c(Cl)cccc1Cl	> 100 µM (inactive)	23 µM (inactive)	9.75 µM (inactive)	> 100 µM (inactive)	> 100 µM (inactive)	> 100	> 100 µM (inactive)	5.77 µM (inactive)	–	> 100 µM (inactive)	> 100 µM (inactive)	> 100 µM (inactive)	> 100 µM (inactive)	> 100 µM (inactive)	> 100 µM (inactive)	> 100 µM (inactive)	12.3 µM (inactive)
CC(=O)c1ccc(N2C(=O)C3c4[nH]c5ccccc5c4C4CCC(C(C)(C)C)CC4C3C2=O)cc1 (stereo not drawn)	–	43.5 µM (inactive)	26.7 µM (inactive)	20.8 µM (inactive)	28.7 µM (inactive)	29.3	28.8 µM (inactive)	–	20.7 µM (inactive)	19.6 µM (inactive)	20.3 µM (inactive)	16.6 µM (inactive)	21.7 µM (inactive)	19.2 µM (inactive)	33.2 µM (inactive)	–	24.4 µM (inactive)
C=CCC(N(C)C(=O)[C@H](Cc1ccccc1)NC(=O)OCc1ccccc1)P(=O)(Oc1ccccc1)Oc1ccccc1 (stereo partly drawn)	> 100 µM (inactive)	5.5 µM (inactive)	6.37 µM (inactive)	29 µM (inactive)	> 100 µM (inactive)	–	> 100 µM (inactive)	6.1 µM (inactive)	> 100 µM (inactive)	5.81 µM (inactive)	> 100 µM (inactive)	5.9 µM (inactive)	> 100 µM (inactive)	> 100 µM (inactive)	> 100 µM (inactive)	–	> 100 µM (inactive)
COc1ccc(CNc2cnc3ccc(N)cc3n2)cc1OC	> 100 µM (inactive)	79.6 µM (inactive)	> 100 µM (inactive)	–	> 100 µM (inactive)	> 100	67 µM (inactive)	> 100 µM (inactive)	> 100 µM (inactive)	> 100 µM (inactive)	> 100 µM (inactive)	53.8 µM (inactive)	> 100 µM (inactive)	> 100 µM (inactive)	> 100 µM (inactive)	> 100 µM (inactive)	> 100 µM (inactive)
O=C(/C=C/c1ccco1)N1CCN(Cc2ccccc2)CC1	–	96.8 µM (inactive)	> 100 µM (inactive)	> 100 µM (inactive)	> 100 µM (inactive)	> 100	> 100 µM (inactive)	> 100 µM (inactive)	> 100 µM (inactive)	> 100 µM (inactive)	> 100 µM (inactive)	> 100 µM (inactive)	> 100 µM (inactive)	> 100 µM (inactive)	> 100 µM (inactive)	> 100 µM (inactive)	> 100 µM (inactive)
O=C(COc1ccc(Br)cc1Br)N1N=C(c2ccc([N+](=O)[O-])o2)CC1(O)c1ccccc1 (stereo not drawn)	12.5 µM (inactive)	5.36 µM (inactive)	2.12 µM (inactive)	–	18.7 µM (inactive)	6.19	12.6 µM (inactive)	6.24 µM (inactive)	10.6 µM (inactive)	8.65 µM (inactive)	> 10 µM (inactive)	11.9 µM (inactive)	13.1 µM (inactive)	12.4 µM (inactive)	10.7 µM (inactive)	14.5 µM (inactive)	5.48 µM (inactive)
CC1C(=O)O[C@H]2C1CC[C@@]1(C)[C@H](O)CC[C@@]13C[C@]2(O)OO3 (stereo partly drawn)	–	> 100 µM (inactive)	> 100 µM (inactive)	> 100 µM (inactive)	> 100 µM (inactive)	> 100	> 100 µM (inactive)	> 100 µM (inactive)	> 100 µM (inactive)	> 100 µM (inactive)	–	> 100 µM (inactive)	> 100 µM (inactive)	> 100 µM (inactive)	> 100 µM (inactive)	> 100 µM (inactive)	–
CC(=O)OC(C)(C)[C@@H]1CC[C@]2(C)/C=C/[C@H](C)C[C@@H](O)C3=C(C)C[C@@H](O3)C12 (stereo partly drawn)	> 100 µM (inactive)	> 100 µM (inactive)	> 100 µM (inactive)	> 100 µM (inactive)	> 100 µM (inactive)	> 100	> 100 µM (inactive)	> 100 µM (inactive)	> 100 µM (inactive)	> 100 µM (inactive)	> 100 µM (inactive)	> 100 µM (inactive)	> 100 µM (inactive)	> 100 µM (inactive)	> 100 µM (inactive)	> 100 µM (inactive)	–
CC1C[C@@]2(c3ccccc3)C(=O)CCC[C@H]2N1 (stereo partly drawn)	> 100 µM (inactive)	> 100 µM (inactive)	> 100 µM (inactive)	29.6 µM (inactive)	> 100 µM (inactive)	–	> 100 µM (inactive)	> 100 µM (inactive)	–	> 100 µM (inactive)	> 100 µM (inactive)	> 100 µM (inactive)	> 100 µM (inactive)	> 100 µM (inactive)	> 100 µM (inactive)	> 100 µM (inactive)	> 100 µM (inactive)
